Experiments:
APC/C^Cdc20 = APC/C^Cdc20 inhibition by MCC components (securin ubiquitination assay); type: biochemical, Xenopus APC/C, human Cdc20; details: Bub1–Mad1 mixture, Cdc20^ΔN60, Mad2^Mono, BubR1^N; reversine 10 μM where used
[1] = system: Bub1 S459 phosphorylation in HeLa cells; details: nocodazole and MG132; reversine 1 µM
Experimental: HeLa Tet-On cells were initially purchased from Clontech (Mountain View, CA), and were cultured in Dulbecco’s Modified Eagle Medium (DMEM, Invitrogen, Carlsbad, CA) supplemented with 10% fetal bovine serum and 2 mM L-glutamine. The cells were authenticated by genome sequencing and metaphase chromosome spread, and were routinely checked by 4',6-diamidino-2-phenylindole (DAPI) staining to ascertain that they were free of mycoplasma contamination. For G1/S synchronization, cells were treated with 2 mM thymidine (Sigma, St. Louis, MO) for 14–16 hr. For mitotic arrest, cells were treated with 330 nM or 1 µM nocodazole (Sigma) or 100 nM taxol (Sigma) for 12–14 hr. Other chemicals used in this study were: RO3306 (Sigma) at 20 µM, BI 2536 (Selleck Chemicals, Houston, TX) at 1 µM, MG132 (Selleck Chemicals) at 10 µM, okadaic acid (LC lab, Woburn, MA) at 500 nM, and reversine (Cayman Chemical, Ann Arbor, MI) at 1 µM.

[2] = system: N-terminal fragment of Cdc20 (residues 1–170, Cdc20^N); test: in vitro pull-down of Mps1-treated Mad1^E–Mad2 by Cdc20^N beads; type: binding, human; details: Ni^2+ beads with Cdc20^N170-His6; Mad1 pre-treated with kinase domain of Mps1; anti-Mad1 blot
Experimental: Expression of Cdc20-His6 proteins containing the N-terminal regions of Cdc20 was induced by 1 mM isopropyl β-D-1-thiogalactopyranoside (IPTG) at 37 °C for 6 h. Harvested pellets were lysed in denaturing lysis buffer (100 mM NaH2PO4, 10 mM Tris-HCl, pH 8.0, 8 M Urea), and incubated overnight by gentle rocking at room temperature. After centrifugation, the supernatants were incubated with pre-equilibrated Ni^2+-NTA beads (Qiagen). Protein-bound beads were washed with 15 volumes of denaturing wash buffer (100 mM NaH2PO4, 10 mM Tris-HCl, pH 6.3, 8 M Urea). The proteins were then eluted with denaturing elution buffer (100 mM NaH2PO4, 10 mM Tris-HCl, pH 4.5, 8 M Urea). The eluted proteins were then dialyzed into the storage buffer (50 mM Tris, pH 8.0, 200 mM NaCl, 5% glycerol, 1 mM β-mercaptoethanol). […]
For kinase assays, 1 μM Cdc20^ΔN60, 40 μM Mad1^E–Mad2, or 400 nM Bub1^ΔK–Bub3 was incubated with 40 nM Bub1, 500 nM Mps1, and/or 50 nM Cdk1–Cyclin B1 at room temperature for 30 min in the kinase buffer (25 mM Tris-HCl, pH 7.7, 100 mM NaCl, 10 mM MgCl2, 5 mM NaF, 20 mM β-glycerophosphate, 0.1 mM Na3VO4 and 1 mM DTT) supplemented with 1 mM ATP. The reaction mixtures were stopped with the appropriate kinase inhibitors for further protein-binding assays, or quenched with the SDS loading buffer and analyzed by Coomassie blue staining or Western blotting. […]

## c1nc2nc(Nc3ccc(N4CCOCC4)cc3)nc(NC3CCCCC3)c2[nH]1 [reversine, reference compound]
APC/C^Cdc20
  APC/C^Cdc20 inhibition by the MCC mixture with Bub1–Mad1 mixture (in words): greatly weakened APC/C^Cdc20 inhibition by the MCC mixture
[1]
  Bub1 S459 phosphorylation in mitosis (in words): reduced
[2]
  binding of Mps1-treated Mad1^E–Mad2 to Cdc20^N (in words): greatly reduced this interaction
